# Source: patent US4895841A (priority 1987, dated 1990)
# Structures can show the parent of a compound that is named as a salt. Where two headings read alike, the source gives them in different places.
# Legend:
# [1] = tested on: passive avoidance learning impairment induced by scopolamine; assay: Action on passive avoidance learning impairment induced by scopolamine; assay type: in vivo, Male Wistar rats; details: scopolamine 0.5 mg/kg i.p.
# Description: Action on passive avoidance learning impairment induced by scopolamine
# See Z. Bokolanecky & Jarvik: Int. J. Neuropharmacol, 6, 217-222(1967).
# Male Wistar rats were used as the test animal and a step-through light and dark box was used as an apparatus. A sample to detect was orally administered one hour before the training and the rats were treated with 0.5 mg/kg (i.p.) of scopolamine 30 min. before the training. In a training experiment, the animal was placed into a light room and, just after the animal had entered into a dark room, a guillotine door was closed, followed by delivery of an electric shock from the gid of the floor. After six hours, the animal was again placed into a light room for a retention experiment, and the time taken for the animal to enter the dark room was measured for evaluation of the effect of the sample.
# The difference in the response time between the physiological saline administration group and the scopolamine administration group was taken as 100%, and the effect of the sample was expressed in terms of the percentage antagonism by the sample (Reverse %).
# The number of animals per dose was 10 to 17.
# Toxicity tests on rats = details: rat, in vivo, no serious toxicity
# acetylcholinesterase [2] = biological target: T1, acetylcholinesterase (Mus musculus, UniProt P21836); assay: biochemical; assay type: biochemical
# T1 construct: A mouse brain homogenate was used as an acetylcholinesterase source; from tissue; host or cells: mouse brain homogenate
# acetylcholinesterase [3] = assay: Ex vivo acetylcholinesterase inhibitory action in rat cerebral hemispheres after oral administration; details: 1 h after administration, vs saline control
# Description: A sample to detect was orally administered to rats. After one hour of the administration, the cerebral hemispheres were dissected and homogenized, followed by the determination of the acetylcholinesterase activity. The group of rats treated with physiological saline was used as the control. Inhibition of AChE by samples ex vivo was expressed in terms of inhibition percent of the control value.
# [4] = 0.5 mg/kg oral 1 h before training
# [5] = 1.0 mg/kg oral 1 h before training
# [6] = 0.25 mg/kg oral 1 h before training
# [7] = read-out: AChE inhibitory activity IC50
# [8] = read-out: Inhibitory activity on AChE IC50
# T1 sequence (P21836 32-614): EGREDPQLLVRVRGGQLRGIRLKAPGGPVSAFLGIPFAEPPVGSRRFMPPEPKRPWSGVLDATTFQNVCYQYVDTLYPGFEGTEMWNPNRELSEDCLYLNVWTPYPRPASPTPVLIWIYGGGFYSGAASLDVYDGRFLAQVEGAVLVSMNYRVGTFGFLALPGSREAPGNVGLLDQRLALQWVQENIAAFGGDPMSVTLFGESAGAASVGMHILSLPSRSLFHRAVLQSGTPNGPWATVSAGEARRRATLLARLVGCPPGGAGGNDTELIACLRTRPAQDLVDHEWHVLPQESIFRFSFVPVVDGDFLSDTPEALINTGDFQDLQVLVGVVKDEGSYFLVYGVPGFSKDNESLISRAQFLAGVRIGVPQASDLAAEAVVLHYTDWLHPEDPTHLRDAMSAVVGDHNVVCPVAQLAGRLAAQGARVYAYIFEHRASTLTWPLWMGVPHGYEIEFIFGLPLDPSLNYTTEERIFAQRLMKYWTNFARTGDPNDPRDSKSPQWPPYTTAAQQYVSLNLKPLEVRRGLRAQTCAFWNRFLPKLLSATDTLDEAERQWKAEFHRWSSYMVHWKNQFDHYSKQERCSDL
smiles,measurement,setting,value
CCN1CC(=O)N(CCC2CCN(Cc3ccccc3)CC2)c2ccccc2C1 [Example 69],Reverse % (percentage antagonism of scopolamine effect),[1]; [4],22%
same,Reverse % (percentage antagonism of scopolamine effect),[1]; [5],38%
same,LD50,Toxicity tests on rats,≥ 100 mg/kg
CC(C)OC(=O)c1nccnc1C(=O)NCCC1CCN(Cc2ccccc2)CC1 [Example 13],IC50,acetylcholinesterase [2],0.026 µM
same,Reverse % (percentage antagonism of scopolamine effect),[1]; [6],39%
same,Reverse % (percentage antagonism of scopolamine effect),[1]; [4],27%
same,LD50,Toxicity tests on rats,≥ 100 mg/kg
"O=C(NCCC1CCN(Cc2ccccc2)CC1)c1cnc2ccccc2n1 [Example 15, N-[4'-(1'-Benzylpiperidyl)ethyl]-2-quinoxalinecarboxylic amide]",IC50,acetylcholinesterase [2]; [7],0.094 µM
same,AChE inhibitory action (%),acetylcholinesterase [3]; 10 mg/kg oral,5%
same,AChE inhibitory action (%),acetylcholinesterase [3]; 30 mg/kg oral,14%
same,AChE inhibitory action (%),acetylcholinesterase [3]; 100 mg/kg oral,18%
same,Reverse % (percentage antagonism of scopolamine effect),[1]; [5],51%
same,Reverse % (percentage antagonism of scopolamine effect),[1]; 2.0 mg/kg oral 1 h before training,30%
same,LD50,Toxicity tests on rats,≥ 100 mg/kg
"O=C(c1ccncc1)N(CCC1CCN(Cc2ccccc2)CC1)c1ccccc1 [Example 19, dihydrochloride]",IC50,acetylcholinesterase [2]; [7],0.064 µM
same,Reverse % (percentage antagonism of scopolamine effect),[1]; [4],37%
same,Reverse % (percentage antagonism of scopolamine effect),[1]; [5],39%
same,LD50,Toxicity tests on rats,≥ 100 mg/kg
"COc1cc2c(cc1OC)C(=O)C(=CCCC1CCN(Cc3ccccc3)CC1)C2 [Example 186, 1-Benzyl-4-[3-[(5,6-dimethoxy-1-indanon)-2-ylidenyl]]propylpiperidine hydrochloride]",IC50,acetylcholinesterase [2],0.0015 µM
CN1CC(=O)N(CCC2CCN(Cc3ccccc3)CC2)c2ccccc2C1=O [Example 70],IC50,acetylcholinesterase [2],0.28 µM
"COc1cc2c(cc1OC)C(=O)C(CC1CCN(Cc3ccccc3)CC1)C2 (stereo not shown) [Example 4, 1-Benzyl-4-[(5,6-dimethoxy-1-indanon)-2-yl]-methylpiperidine hydrochloride]",Reverse % (percentage antagonism of scopolamine effect),[1]; 0.125 mg/kg oral 1 h before training,55%
same,Reverse % (percentage antagonism of scopolamine effect),[1]; [6],36%
COc1cccc2c1CC(CC1CCN(Cc3ccccc3)CC1)C2=O (stereo not shown) [Example 189],IC50,acetylcholinesterase [2]; [8],0.012 µM
"COc1cc2c(cc1OC)C(=O)C(CCCC1CCN(Cc3ccccc3)CC1)C2 (stereo not shown) [Example 187, 1-Benzyl-4-[3-[(5,6-dimethoxy-1-indanon)-2-yl]]propylpiperidine hydrochloride]",IC50,acetylcholinesterase [2],4.4 µM
COc1cc2c(cc1OC)C(=O)C(NC1CCN(Cc3ccccc3)CC1)C2 (stereo not shown) [Example 248],IC50,acetylcholinesterase [2],1.4 µM
COc1ccc2c(c1OC)CC(=CC1CCN(Cc3ccccc3)CC1)C2=O [Example 208],IC50,acetylcholinesterase [2],0.062 µM
COc1cc2c(cc1OC)C(=O)N(C)C(CCC1CCN(Cc3ccccc3)CC1)C2 (stereo not shown) [Example 67],IC50,acetylcholinesterase [2],0.1 µM
"CN(CCC1CCN(CC2CCCCC2)CC1)C(=O)c1ccccc1 [Example 27, N-[4'-(1'-Cyclohexylmethylpiperidyl)ethyl]-N-methylbenzamide hydrochloride]",IC50,acetylcholinesterase [2]; [7],0.41 µM
COc1cc2c(c(OC)c1OC)C(=O)C(=CC1CCN(Cc3ccccc3)CC1)C2 [Example 210],IC50,acetylcholinesterase [2],0.06 µM
COc1ccc2c(c1)C(=O)C(CC1CCN(Cc3ccccc3)CC1)C2 (stereo not shown) [Example 188],IC50,acetylcholinesterase [2]; [8],0.081 µM
COc1cc2c(cc1OC)C(=NNc1ccc([N+](=O)[O-])cc1[N+](=O)[O-])C(CC1CCN(Cc3ccccc3)CC1)C2 (stereo not shown) [Example 246],IC50,acetylcholinesterase [2],4.4 µM
O=C1Cc2ccccc2CN1CCC1CCN(Cc2ccccc2)CC1 [Example 56],IC50,acetylcholinesterase [2]; [7],0.017 µM
COc1ccc2c(c1)C(=O)C(=CC1CCN(Cc3ccccc3)CC1)C2 [Example 206],IC50,acetylcholinesterase [2]; [8],0.41 µM
"O=C(NCCC1CCN(Cc2ccc(O)cc2)CC1)c1cnc2ccccc2n1 [Example 14, N-[4'-(1'-(p-Hydroxybenzyl)piperidine)ethyl]-2-quinoxalinecarboxylic amide hydrochloride]",IC50,acetylcholinesterase [2],0.038 µM
"CCOC(=O)N1CCC(CC2Cc3cc(OC)c(OC)cc3C2=O)CC1 (stereo not shown) [Example 182, 4-[(5,6-Dimethoxy-1-indanon)-2-yl]methyl-1-ethoxycarbonylpiperidine]",IC50,acetylcholinesterase [2],0.8 µM
"CCOC(=O)N1CCC(CC2=Cc3cc(OC)c(OC)cc3C2=O)CC1 [Example 183, 4-[(5,6-Dimethoxy-1-indenon)-2-yl]methyl-1-ethoxycarbonylpiperidine]",IC50,acetylcholinesterase [2],5.3 µM
COc1ccc2c(c1OC)C(=O)C(=CC1CCN(Cc3ccccc3)CC1)C2 [Example 209],IC50,acetylcholinesterase [2],0.43 µM
COc1ccc(CN2CCC(CC3Cc4cc(OC)c(OC)cc4C3=O)CC2)cc1 (stereo not shown) [Example 236],IC50,acetylcholinesterase [2],3.6 µM
CC(=O)N(CCC1CCN(Cc2ccccc2)CC1)c1ccncc1 [Example 101],IC50,acetylcholinesterase [2],0.11 µM
COc1cc2c(cc1O)C(=O)C(CC1CCNCC1)C2 (stereo not shown) [Example 245],IC50,acetylcholinesterase [2],5 µM
